Data reported in US4619925A, “3-Propenyl cephalosporin derivatives” (priority 1985, dated 1986).
Values after ≈ are worked out from the molar mass of the structure shown.

Key:
Mouse blood levels = assay: Mouse blood levels
Text: Table 3 contains comparative blood level data for mice treated orally and intramuscularly with the hydroxyphenylglycyl derivatives.

[1] = tested on: Gn-Ia organisms (Gram-negative bacteria sensitive to ampicillin and cephalothin); assay: In vitro activity, agar dilution, group of five strains; type: cell-based
Text: (§1) Each of these groups of organisms is constituted of five individual strains of microorganism. The Gp-Ia organisms are Gram-positive staphylococci which are sensitive to penicillin. The Gp-Ib organisms are Gram-positive staphylococci which are resistant to penicillin and produce penicillinase. The Gn-Ia organisms are Gram-negative bacteria which are sensitive to ampicillin and cephalothin. The Gn-Ib organisms are Gram-negative bacteria which are resistant to ampicillin and cephalothin.

E. coli Juhl [2] = assay: Protective dose for mice infected with lethal inoculum; type: in vivo; settings: 50% survival after five days
Text: (§2) The data in Table 2 are results of protective doses (PD50) for mice infected with a lethal inoculum of bacteria. Two different bacteria were employed in the studies, one a Gram-positive organism (S. aureus Smith) and the other a Gram-negative organism (E. coli Juhl). The PD50 is that dose which, when administered to a group of injected mice, results in 50% survival after five days. Normally untreated infected mice die within three days following injection of the lethal inoculum.

S. aureus Smith [3] = assay: as above; type: in vivo; settings: 50% survival after five days
Text: as §2

[4] = tested on: Gram-positive bacteria, Gram-negative bacteria and fastidious bacteria; assay: Antibacterial activity (summary statement); type: cell-based
S. aureus BX-1633-2 = assay: MIC, agar dilution technique (Mueller-Hinton Agar); type: cell-based; settings: Staphylococcus aureus, BX16332, read-out: Minimum Inhibitory Concentration
Text: as §1

S. aureus No. 193 = assay: MIC, agar dilution technique (Mueller-Hinton Agar); type: cell-based; settings: Staphylococcus aureus, Gp-Ib, penicillin resistant, read-out: Minimum Inhibitory Concentration
Text: as §1

K. pneumoniae D11 = assay: MIC, agar dilution technique (Mueller-Hinton Agar); type: cell-based; settings: Klebsiella pneumoniae; K. pneumoniae D11; Gn-Ia, ampicillin and cephalothin sensitive; read-out: Minimum Inhibitory Concentration
Text: as §1

S. aureus Terajima = assay: MIC, agar dilution technique (Mueller-Hinton Agar); type: cell-based; settings: Staphylococcus aureus, Gp-Ia, penicillin sensitive, read-out: Minimum Inhibitory Concentration
Text: as §1

S. aureus A9601 = assay: MIC, agar dilution technique (Mueller-Hinton Agar); type: cell-based; settings: Staphylococcus aureus; S. aureus A9601; Gp-Ia, penicillin sensitive; read-out: Minimum Inhibitory Concentration
Text: as §1

S. aureus A9534 = assay: MIC, agar dilution technique (Mueller-Hinton Agar); type: cell-based; settings: Staphylococcus aureus, Gp-Ia, penicillin sensitive, read-out: Minimum Inhibitory Concentration
Text: as §1

E. coli A9660 = assay: MIC, agar dilution technique (Mueller-Hinton Agar); type: cell-based; settings: Escherichia coli; E. coli A9660; Gn-Ia, ampicillin and cephalothin sensitive; read-out: Minimum Inhibitory Concentration
Text: as §1

E. coli A15148 = assay: MIC, agar dilution technique (Mueller-Hinton Agar); type: cell-based; settings: Escherichia coli; E. coli A15148; Gn-Ib, ampicillin and cephalothin resistant; read-out: Minimum Inhibitory Concentration
Text: as §1

P. mirabilis A9900 = assay: MIC, agar dilution technique (Mueller-Hinton Agar); type: cell-based; settings: Proteus mirabilis; P. mirabilis A9900; Gn-Ia, ampicillin and cephalothin sensitive; read-out: Minimum Inhibitory Concentration
Text: as §1

S. aureus Russell = assay: MIC, agar dilution technique (Mueller-Hinton Agar); type: cell-based; settings: Staphylococcus aureus, read-out: Minimum Inhibitory Concentration
Text: as §1

K. pneumoniae A20346 = assay: MIC, agar dilution technique (Mueller-Hinton Agar); type: cell-based; settings: Klebsiella pneumoniae; K. pneumoniae A20346; Gn-Ib, ampicillin and cephalothin resistant; read-out: Minimum Inhibitory Concentration
Text: as §1

S. aureus A9497 = assay: MIC, agar dilution technique (Mueller-Hinton Agar); type: cell-based; settings: Staphylococcus aureus, Gp-Ia, penicillin sensitive, read-out: Minimum Inhibitory Concentration
Text: as §1

E. coli Juhl [5] = assay: MIC, agar dilution technique (Mueller-Hinton Agar); type: cell-based; settings: Escherichia coli; E. coli Juhl; Gn-Ia, ampicillin and cephalothin sensitive; read-out: Minimum Inhibitory Concentration
Text: as §1

P. mirabilis A9554 = assay: MIC, agar dilution technique (Mueller-Hinton Agar); type: cell-based; settings: Proteus mirabilis; P. mirabilis A9554; Gn-Ia, ampicillin and cephalothin sensitive; read-out: Minimum Inhibitory Concentration
Text: as §1

E coli RGN-823 = assay: MIC, agar dilution technique (Mueller-Hinton Agar); type: cell-based; settings: Escherichia coli, RGN823, Gn-Ib, ampicillin and cephalothin resistant, read-out: Minimum Inhibitory Concentration
Text: as §1

S. aureus Smith [6] = assay: MIC, agar dilution technique (Mueller-Hinton Agar); type: cell-based; settings: Staphylococcus aureus, Gp-Ia, penicillin sensitive, read-out: Minimum Inhibitory Concentration
Text: as §1

S. aureus A9602 = assay: MIC, agar dilution technique (Mueller-Hinton Agar); type: cell-based; settings: Staphylococcus aureus; S. aureus A9602; Gp-Ib, penicillin resistant; read-out: Minimum Inhibitory Concentration
Text: as §1

E. coli A20341-1 = assay: MIC, agar dilution technique (Mueller-Hinton Agar); type: cell-based; settings: Escherichia coli, A203411; E. coli A20341-1; Gn-Ib, ampicillin and cephalothin resistant; read-out: Minimum Inhibitory Concentration
Text: as §1

S. aureus A15092 = assay: MIC, agar dilution technique (Mueller-Hinton Agar); type: cell-based; settings: Staphylococcus aureus, Gp-Ib, penicillin resistant, read-out: Minimum Inhibitory Concentration
Text: as §1

K. pneumoniae A20345 = assay: MIC, agar dilution technique (Mueller-Hinton Agar); type: cell-based; settings: Klebsiella pneumoniae, Gn-Ib, ampicillin and cephalothin resistant, read-out: Minimum Inhibitory Concentration
Text: as §1

Which results are given for `C/C=C\C1=C(C(=O)O)N2C(=O)C(NC(=O)[C@H](N)c3cccc(O)c3)[C@H]2SC1` (some centres unmarked) [BMY-28272, 7-[(D)-2-amino-2-(3-hydroxyphenyl)acetamido]-3-[(Z)-1-propenyl]-3-cephem-4-carboxylic acid]?
AUC relative to BMY-28100 (Mouse blood levels; 20 mg/kg intramuscularly): greater AUC value; T1/2 relative to BMY-28100 (Mouse blood levels; 20 mg/kg intramuscularly): longer T1/2 than BMY-28100; AUC relative to BMY-28100 (Mouse blood levels; 100 mg/kg orally): greater AUC value; T1/2 relative to BMY-28100 (Mouse blood levels; 100 mg/kg orally): somewhat shorter T1/2 than BMY-28100; duration of blood levels relative to BMY-28100 (Mouse blood levels; 100 mg/kg orally): longer duration of blood levels; antibiotic concentrations in the bloodstream (Mouse blood levels; following oral administration, summary statement): prolonged antibiotic concentrations in the bloodstream following oral administration; concentration at 10 min (Mouse blood levels; mouse, blood, im, 20 mg/kg): 20000 ng/mL; concentration at 20 min (Mouse blood levels; mouse, blood, im, 20 mg/kg): 17000 ng/mL; concentration at 0.5 h (Mouse blood levels; mouse, blood, im, 20 mg/kg): 17000 ng/mL; concentration at 40 min (Mouse blood levels; mouse, blood, im, 20 mg/kg): 12000 ng/mL; concentration at 50 min (Mouse blood levels; mouse, blood, im, 20 mg/kg): 11000 ng/mL; concentration at 1 h (Mouse blood levels; mouse, blood, im, 20 mg/kg): 9400 ng/mL; concentration at 1.5 h (Mouse blood levels; mouse, blood, im, 20 mg/kg): 4800 ng/mL; concentration at 2 h (Mouse blood levels; mouse, blood, im, 20 mg/kg): 2600 ng/mL; AUC (Mouse blood levels; mouse, blood, im, 20 mg/kg, 20 mg/kg i.m.): 20000 ng·h/mL; half-life (Mouse blood levels; mouse, blood, im, 20 mg/kg, T 1/2, 20 mg/kg i.m.): 36 min; Cmax (Mouse blood levels; mouse, blood, po, 20 mg/kg): 9600 ng/mL; concentration at 0.5 h (Mouse blood levels; mouse, blood, po, 20 mg/kg): 7700 ng/mL; concentration at 1 h (Mouse blood levels; mouse, blood, po, 20 mg/kg): 4200 ng/mL; concentration at 2 h (Mouse blood levels; mouse, blood, po, 20 mg/kg): 1600 ng/mL; concentration at 3 h (Mouse blood levels; mouse, blood, po, 20 mg/kg): 620 ng/mL; concentration at 4 h (Mouse blood levels; mouse, blood, po, 20 mg/kg): 220 ng/mL; concentration at 5 h (Mouse blood levels; mouse, blood, po, 20 mg/kg): 130 ng/mL; concentration at 6 h (Mouse blood levels; mouse, blood, po, 20 mg/kg): 82 ng/mL; AUC (Mouse blood levels; mouse, blood, po, 20 mg/kg, 20 mg/kg p.o.): 9700 ng·h/mL; AUC (Mouse blood levels; mouse, blood, po, 20 mg/kg, 20 mg/kg p.o., another experiment (footnote)): 17000 ng·h/mL; half-life (Mouse blood levels; mouse, blood, po, 20 mg/kg, T 1/2, 20 mg/kg p.o.): 51.6 min; half-life (Mouse blood levels; mouse, blood, po, 20 mg/kg, T 1/2, 20 mg/kg p.o., another experiment (footnote)): 60 min; concentration at 0.5 h (Mouse blood levels; mouse, blood, po, 100 mg/kg): 23000 ng/mL; concentration at 1 h (Mouse blood levels; mouse, blood, po, 100 mg/kg): 22000 ng/mL; concentration at 2 h (Mouse blood levels; mouse, blood, po, 100 mg/kg): 16000 ng/mL; concentration at 3 h (Mouse blood levels; mouse, blood, po, 100 mg/kg): 10000 ng/mL; concentration at 4 h (Mouse blood levels; mouse, blood, po, 100 mg/kg): 6300 ng/mL; concentration at 5 h (Mouse blood levels; mouse, blood, po, 100 mg/kg): 3100 ng/mL; concentration at 6 h (Mouse blood levels; mouse, blood, po, 100 mg/kg): 2800 ng/mL; concentration at 7 h (Mouse blood levels; mouse, blood, po, 100 mg/kg): 2500 ng/mL; AUC (Mouse blood levels; mouse, blood, po, 100 mg/kg, 100 mg/kg p.o.): 71000 ng·h/mL; half-life (Mouse blood levels; mouse, blood, po, 100 mg/kg, T 1/2, 100 mg/kg p.o.): 102 min; activity relative to cephalexin and cefaclor [1]: more active than cephalexin and slightly better than cefaclor; PD50 (protective dose) (E. coli Juhl [2]; im): 1.9; PD50 (protective dose) (E. coli Juhl [2]; po): 2.6; PD50 (protective dose) (S. aureus Smith [3]; im): 0.29; PD50 (protective dose) (S. aureus Smith [3]; po): 0.17; activity against Gram-positive bacteria [4]: strong activity against Gram-positive bacteria; spectrum of activity against Gram-negative and fastidious bacteria relative to cephalexin and cefaclor [4]: improved spectrum of activity against Gram-negative bacteria and fastidious bacteria relative to cephalexin and cefaclor; MIC (S. aureus BX-1633-2): 1.6 µg/mL (≈ 4.11 µM); MIC (S. aureus No. 193): 1.6 µg/mL (≈ 4.11 µM); MIC (K. pneumoniae D11): 0.8 µg/mL (≈ 2.05 µM); MIC (S. aureus Terajima): 0.4 µg/mL (≈ 1.03 µM); MIC (S. aureus A9601): 0.8 µg/mL (≈ 2.05 µM); MIC (S. aureus A9534): 0.4 µg/mL (≈ 1.03 µM); MIC (E. coli A9660): 0.8 µg/mL (≈ 2.05 µM); MIC (E. coli A15148): 25 µg/mL (≈ 64.2 µM); MIC (P. mirabilis A9900): 0.8 µg/mL (≈ 2.05 µM); MIC (S. aureus Russell): 1.6 µg/mL (≈ 4.11 µM); MIC (K. pneumoniae A20346): 50 µg/mL (≈ 128 µM); MIC (S. aureus A9497): 0.4 µg/mL (≈ 1.03 µM); MIC (E. coli Juhl [5]): 1.6 µg/mL (≈ 4.11 µM); MIC (P. mirabilis A9554): 0.8 µg/mL (≈ 2.05 µM); MIC (E coli RGN-823): 50 µg/mL (≈ 128 µM); MIC (S. aureus Smith [6]): 0.4 µg/mL (≈ 1.03 µM); MIC (S. aureus A9602): 0.8 µg/mL (≈ 2.05 µM); MIC (E. coli A20341-1): 12.5 µg/mL (≈ 32.1 µM); MIC (S. aureus A15092): 1.6 µg/mL (≈ 4.11 µM); MIC (K. pneumoniae A20345): 6.3 µg/mL (≈ 16.2 µM)
